Assay results reported in patent EP4741420A1, “PHARMACEUTICAL COMPOSITION FOR PREVENTING OR TREATING OBESITY COMPRISING GLP ANALOGUE AS ACTIVE INGREDIENT” (priority 2023, dated 2025).
Like-named read-outs stand apart in the source and are kept apart here. Numbered stars: 1 amine (or outer) side, 2 acyl side, 3 side chain; on linkers, the order of the positions; unused ones are H or OH. Side chains are listed from the residue outwards. Ends that are not written are not given here. Peptide text beside a SMILES is read from it. * marks the point of attachment. mPEG 3.4 kDa = 3.4 kDa maleimidated PEG on Cys; C18 diacid = O=C(O)CCCCCCCCCCCCCCCCC(=O)*; γGlu = O=C(O)[C@H](CCC(=O)[*:2])N[*:1]; Palmitoyl = CCCCCCCCCCCCCCCC(=O)*

Experiments:
[1] = Mouse PK after single subcutaneous administration, LC-MS/MS of plasma; type: in vivo, mice; settings: for AUC(0-t) / Cmax / half-life / Tmax: mouse, in vivo, sc; for Cmax: read-out: Cmax
Protocol: Each of the experimental groups and the control was subcutaneously administered once to the dorsal area of a total of 12 mice using a 1 mL syringe equipped with a 26-gauge needle at a dose of 0.2 mg/5 mL/kg. After drug administration, approximately 0.04 to 0.05 mL of blood was collected per individual at the time scheduled for the orbital vein (4 mice were alternately sampled), and the blood collection times were 1, 2, 4, 8, 24 ,32 ,48, 56, 72, 96, and 120 hours. All plasma samples were analyzed using a self-developed LC-MS/MS assay. Pharmacokinetic analysis of blood drugs was performed using non-compartmental analysis, and analysis of pharmacokinetic parameters was performed using Phoenix WinNolin 64 (Version. 8.3.5 340).

GLP-2 = biological target: T1, GLP-2 (Homo sapiens, UniProt O95838); assay: GLP-2 activity, cell-based cAMP assay (same method as Example 2)
T1 sequence (O95838 1-553): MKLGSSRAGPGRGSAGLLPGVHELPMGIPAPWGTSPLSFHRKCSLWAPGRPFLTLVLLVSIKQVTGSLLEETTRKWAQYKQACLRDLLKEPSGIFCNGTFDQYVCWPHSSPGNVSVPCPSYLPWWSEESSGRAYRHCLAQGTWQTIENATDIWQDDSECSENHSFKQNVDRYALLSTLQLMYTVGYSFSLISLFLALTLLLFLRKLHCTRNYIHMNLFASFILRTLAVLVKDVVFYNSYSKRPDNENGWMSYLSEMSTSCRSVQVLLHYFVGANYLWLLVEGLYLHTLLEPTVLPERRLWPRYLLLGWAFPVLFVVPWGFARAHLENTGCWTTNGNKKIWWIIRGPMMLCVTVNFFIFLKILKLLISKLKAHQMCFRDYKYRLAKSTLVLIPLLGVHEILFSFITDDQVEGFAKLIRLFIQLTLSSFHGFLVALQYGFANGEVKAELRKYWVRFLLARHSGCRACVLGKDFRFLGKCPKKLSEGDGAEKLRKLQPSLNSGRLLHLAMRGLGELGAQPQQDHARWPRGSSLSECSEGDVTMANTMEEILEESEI

[2] = biological target: GLP-1R (on GLP-1R/CHO cells, DiscoverX 95-0062C2) (UniProt P43220 24-463); assay: cell-based or functional assay
Sequence of GLP-1R (on GLP-1R/CHO cells, DiscoverX 95-0062C2) (P43220 24-463 limits assumed): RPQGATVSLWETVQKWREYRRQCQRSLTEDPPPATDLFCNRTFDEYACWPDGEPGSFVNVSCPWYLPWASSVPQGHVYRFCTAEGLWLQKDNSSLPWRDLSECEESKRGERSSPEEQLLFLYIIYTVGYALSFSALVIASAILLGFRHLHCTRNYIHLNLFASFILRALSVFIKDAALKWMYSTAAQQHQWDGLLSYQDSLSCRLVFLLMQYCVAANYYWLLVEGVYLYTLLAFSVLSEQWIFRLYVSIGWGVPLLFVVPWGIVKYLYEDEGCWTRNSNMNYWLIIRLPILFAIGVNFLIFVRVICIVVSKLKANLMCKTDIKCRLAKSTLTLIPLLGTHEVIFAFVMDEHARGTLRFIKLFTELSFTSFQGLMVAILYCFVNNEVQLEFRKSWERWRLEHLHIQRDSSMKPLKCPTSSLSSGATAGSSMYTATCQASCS

[3] = 0.2 mg/kg, C57BL/6N male mice, single subcutaneous dose 0.2 mg/5 mL/kg, plasma
[4] = 0.2 mg/kg, C57BL/6N male mice, single subcutaneous dose 0.2 mg/5 mL/kg, plasma, read-out: T1/2 (converted)
[5] = 0.2 mg/kg, C57BL/6N male mice, single subcutaneous dose 0.2 mg/5 mL/kg, plasma, read-out: Tmax

Molecule	AUC(0-t) [1, 3]	Cmax [1, 3]	half-life [1, 4]	Tmax [1, 5]	also measured
CC[C@H](C)[C@H](NC(=O)[C@H](Cc1ccccc1)NC(=O)[C@H](CC(=O)O)NC(=O)[C@H](CCCNC(=N)N)NC(=O)[C@H](C)NC(=O)[C@H](C)NC(=O)[C@H](CC(C)C)NC(=O)[C@H](C)NC(=O)[C@H](CC(=O)O)NC(=O)[C@H](CC(C)C)NC(=O)[C@H](Cc1ccc(O)cc1)NC(=O)[C@@H](NC(=O)[C@H](CO)NC(=O)[C@H](CC(C)C)NC(=O)[C@H](CC(=O)O)NC(=O)[C@H](CO)NC(=O)[C@@H](NC(=O)[C@H](Cc1ccccc1)NC(=O)[C@@H](NC(=O)CNC(=O)[C@H](CCC(=O)O)NC(=O)C(C)(C)NC(=O)[C@@H](N)Cc1c[nH]cn1)[C@@H](C)O)[C@@H](C)O)[C@@H](C)O)C(=O)N[C@@H](CC(N)=O)C(=O)N[C@@H](Cc1c[nH]c2ccccc12)C(=O)N[C@@H](CC(C)C)C(=O)N[C@H](C(=O)N[C@@H](CCC(N)=O)C(=O)N[C@H](C(=O)N[C@@H](CCCCN)C(=O)N[C@H](C(=O)N[C@H](C(=O)N[C@@H](CC(=O)O)C(=O)N[C@@H](CCCCN)C(=O)N[C@@H](CCCCNC(=O)CC[C@H](NC(=O)CCCCCCCCCCCCCCCCC(=O)O)C(=O)O)C(=O)O)[C@@H](C)O)[C@@H](C)CC)[C@@H](C)O)[C@@H](C)CC [HU020M4] (HELM PEPTIDE1{H.[Aib].E.G.T.F.T.S.D.L.S.T.Y.L.D.A.L.A.A.R.D.F.I.N.W.L.I.Q.T.K.I.T.D.K.K}|PEPTIDE2{[O=C(O)CCCCCCCCCCCCCCCCC(=O)[*:2]].[gGlu]}$PEPTIDE1,PEPTIDE2,35:R3-2:R2$$$V2.0)	23800 ng·h/mL	810 ng/mL	10.7 h	8 h	half-life longer than that of semaglutide ([1]; mouse PK, relative to semaglutide): 1.5 fold
CCCCCCCCCCCCCCCC(=O)N[C@@H](CCC(=O)NCCCC[C@H](NC(=O)[C@H](CCCCN)NC(=O)[C@H](CC(=O)O)NC(=O)[C@@H](NC(=O)[C@@H](NC(=O)[C@H](CCCCN)NC(=O)[C@@H](NC(=O)[C@H](CCC(N)=O)NC(=O)[C@@H](NC(=O)[C@H](CC(C)C)NC(=O)[C@H](Cc1c[nH]c2ccccc12)NC(=O)[C@H](CC(N)=O)NC(=O)[C@@H](NC(=O)[C@H](Cc1ccccc1)NC(=O)[C@H](CC(=O)O)NC(=O)[C@H](CCCNC(=N)N)NC(=O)[C@H](C)NC(=O)[C@H](C)NC(=O)[C@H](CC(C)C)NC(=O)[C@H](C)NC(=O)[C@H](CC(=O)O)NC(=O)[C@H](CC(C)C)NC(=O)[C@H](Cc1ccc(O)cc1)NC(=O)[C@@H](NC(=O)[C@H](CO)NC(=O)[C@H](CC(C)C)NC(=O)[C@H](CC(=O)O)NC(=O)[C@H](CO)NC(=O)[C@@H](NC(=O)[C@H](Cc1ccccc1)NC(=O)[C@@H](NC(=O)CNC(=O)[C@H](CCC(=O)O)NC(=O)C(C)(C)NC(=O)[C@@H](N)Cc1c[nH]cn1)[C@@H](C)O)[C@@H](C)O)[C@@H](C)O)[C@@H](C)CC)[C@@H](C)CC)[C@@H](C)O)[C@@H](C)CC)[C@@H](C)O)C(=O)O)C(=O)O [HU020M3] (HELM PEPTIDE1{H.[Aib].E.G.T.F.T.S.D.L.S.T.Y.L.D.A.L.A.A.R.D.F.I.N.W.L.I.Q.T.K.I.T.D.K.K}|PEPTIDE2{[CCCCCCCCCCCCCCCC(=O)[*:2]].[gGlu]}$PEPTIDE1,PEPTIDE2,35:R3-2:R2$$$V2.0)	5070 ng·h/mL	315 ng/mL	7 h	12 h	–
CC[C@H](C)[C@H](NC(=O)[C@H](Cc1ccccc1)NC(=O)[C@H](CC(=O)O)NC(=O)[C@H](CCCNC(=N)N)NC(=O)[C@H](C)NC(=O)[C@H](C)NC(=O)[C@H](CC(C)C)NC(=O)[C@H](CC(N)=O)NC(=O)[C@H](CC(=O)O)NC(=O)[C@H](CC(C)C)NC(=O)[C@@H](NC(=O)[C@@H](NC(=O)[C@H](CC(N)=O)NC(=O)[C@H](CCSC)NC(=O)[C@H](CCC(=O)O)NC(=O)[C@H](CC(=O)O)NC(=O)[C@H](CO)NC(=O)[C@H](Cc1ccccc1)NC(=O)[C@H](CO)NC(=O)CNC(=O)[C@H](CC(=O)O)NC(=O)[C@H](C)NC(=O)[C@@H](N)Cc1c[nH]cn1)[C@@H](C)O)[C@@H](C)CC)C(=O)N[C@@H](CC(N)=O)C(=O)N[C@@H](Cc1c[nH]c2ccccc12)C(=O)N[C@@H](CC(C)C)C(=O)N[C@H](C(=O)N[C@@H](CCC(N)=O)C(=O)N[C@H](C(=O)N[C@@H](CCCCN)C(=O)N[C@H](C(=O)N[C@H](C(=O)N[C@@H](CC(=O)O)C(=O)O)[C@@H](C)O)[C@@H](C)CC)[C@@H](C)O)[C@@H](C)CC [GLP-2 (Synthesized), GLP-2, reference compound]	–	–	–	–	GLP-2 activity Compared to GLP-2 (GLP-2; Example 5, relative to GLP-2): 100%
HGEGTFTSDLSTYLDALAARDFINWLIQTKITD [HU020]	–	–	–	–	EC50 (GLP-2; Example 5): 650 nM
CC[C@H](C)[C@H](NC(=O)[C@H](Cc1ccccc1)NC(=O)[C@H](CC(=O)O)NC(=O)[C@H](CCCNC(=N)N)NC(=O)[C@H](C)NC(=O)[C@H](C)NC(=O)[C@H](CC(C)C)NC(=O)[C@H](C)NC(=O)[C@H](CC(=O)O)NC(=O)[C@H](CC(C)C)NC(=O)[C@H](Cc1ccc(O)cc1)NC(=O)[C@@H](NC(=O)[C@H](CO)NC(=O)[C@H](CC(C)C)NC(=O)[C@H](CC(=O)O)NC(=O)[C@H](CO)NC(=O)[C@@H](NC(=O)[C@H](Cc1ccccc1)NC(=O)[C@@H](NC(=O)CNC(=O)[C@H](CCC(=O)O)NC(=O)C(C)(C)NC(=O)[C@@H](N)Cc1c[nH]cn1)[C@@H](C)O)[C@@H](C)O)[C@@H](C)O)C(=O)N[C@@H](CC(N)=O)C(=O)N[C@@H](Cc1c[nH]c2ccccc12)C(=O)N[C@@H](CC(C)C)C(=O)N[C@H](C(=O)N[C@@H](CCC(N)=O)C(=O)N[C@H](C(=O)N[C@@H](CCCCN)C(=O)N[C@H](C(=O)N[C@H](C(=O)N[C@@H](CC(=O)O)C(=O)N[C@@H](CCCCN)C(=O)N[C@@H](CCCCNC(=O)CC[C@H](NC(=O)CCCCCCCCCCCCCCCCCCC(=O)O)C(=O)O)C(=O)O)[C@@H](C)O)[C@@H](C)CC)[C@@H](C)O)[C@@H](C)CC [HU020M5] (HELM PEPTIDE1{H.[Aib].E.G.T.F.T.S.D.L.S.T.Y.L.D.A.L.A.A.R.D.F.I.N.W.L.I.Q.T.K.I.T.D.K.K}|PEPTIDE2{[O=C(O)CCCCCCCCCCCCCCCCCCC(=O)[*:2]].[gGlu]}$PEPTIDE1,PEPTIDE2,35:R3-2:R2$$$V2.0)	20500 ng·h/mL	661 ng/mL	15.2 h	8 h	–
CC[C@H](C)[C@H](NC(=O)[C@H](Cc1ccccc1)NC(=O)[C@H](CC(=O)O)NC(=O)[C@H](CCCNC(=N)N)NC(=O)[C@H](C)NC(=O)[C@H](C)NC(=O)[C@H](CC(C)C)NC(=O)[C@H](C)NC(=O)[C@H](CC(=O)O)NC(=O)[C@H](CC(C)C)NC(=O)[C@H](Cc1ccc(O)cc1)NC(=O)[C@@H](NC(=O)[C@H](CO)NC(=O)[C@H](CC(C)C)NC(=O)[C@H](CC(=O)O)NC(=O)[C@H](CO)NC(=O)[C@@H](NC(=O)[C@H](Cc1ccccc1)NC(=O)[C@@H](NC(=O)CNC(=O)[C@H](CCC(=O)O)NC(=O)CNC(=O)[C@@H](N)Cc1c[nH]cn1)[C@@H](C)O)[C@@H](C)O)[C@@H](C)O)C(=O)N[C@@H](CC(N)=O)C(=O)N[C@@H](Cc1c[nH]c2ccccc12)C(=O)N[C@@H](CC(C)C)C(=O)N[C@H](C(=O)N[C@@H](CCC(N)=O)C(=O)N[C@H](C(=O)N[C@@H](CCCCN)C(=O)N[C@H](C(=O)N[C@H](C(=O)N[C@@H](CC(=O)O)C(=O)N[C@@H](CCCCN)C(=O)N[C@@H](CCCCNC(=O)CC[C@H](NC(=O)CCCCCCCCCCCCCCCCC(=O)O)C(=O)O)C(=O)O)[C@@H](C)O)[C@@H](C)CC)[C@@H](C)O)[C@@H](C)CC [HU020M1] (HELM PEPTIDE1{H.G.E.G.T.F.T.S.D.L.S.T.Y.L.D.A.L.A.A.R.D.F.I.N.W.L.I.Q.T.K.I.T.D.K.K}|PEPTIDE2{[O=C(O)CCCCCCCCCCCCCCCCC(=O)[*:2]].[gGlu]}$PEPTIDE1,PEPTIDE2,35:R3-2:R2$$$V2.0)	–	–	–	–	Tmax ([1]; male, C57BL/6N): 12 h; half-life ([1]; male, C57BL/6N): 13.8 h
HGEGTFTSDLSTYLDALAARDFINWLIQTKITDKK([γGlu-C18 diacid]) [HU020M1]	–	–	–	–	GLP-1 activity (EC50, pM) [2]: 113 pM; GLP-1 activity, Compared to GLP-1 (Exendin-4) [2]: 6.3%
HGEGTFTSDLSTYLDALAAC(mPEG 3.4 kDa)DFINWLIQTKITDKK([γGlu-Palmitoyl]) [HU020M6]	–	–	–	–	GLP-1 activity (EC50, pM) [2]: 45.7 pM; GLP-1 activity, Compared to GLP-1 (Exendin-4) [2]: 15.5%
